Assay results reported in patent US20070049564A1 (Wyeth, priority 2005, published 2007).
Converted amounts (≈) assume the structure as drawn. Like-named read-outs stand apart in the source and are kept apart here.

Columns and labels:
E. coli GC 2231 = test: MIC, broth microdilution; conditions: Escherichia coli
S. aureus GC 6335 = test: MIC, broth microdilution; conditions: Staphylococcus aureus
E. coli GC 2232 = test: MIC, broth microdilution; conditions: Escherichia coli
E. faecium GC 4556 = test: MIC, broth microdilution; conditions: Enterococcus faecium
E. coli GC 2236 = test: MIC, broth microdilution; conditions: Escherichia coli
P. aeruginosa GC 2214 = test: MIC, broth microdilution; conditions: Pseudomonas aeruginosa
S. aureus GC 6466 = test: MIC, broth microdilution; conditions: Staphylococcus aureus
E. coli GC 2203 = test: MIC, broth microdilution; conditions: Escherichia coli
S. pyogenes GC 4563 = test: MIC, broth microdilution; conditions: Streptococcus pyogenes
E. coli = test: Range of MIC for E. coli strains; conditions: Escherichia coli
E. coli GC 2233 = test: MIC, broth microdilution; conditions: Escherichia coli
E. faecium GC 2243 = test: MIC, broth microdilution; conditions: Enterococcus faecium
E. coli GC 2234 = test: MIC, broth microdilution; conditions: Escherichia coli
S. aureus GC 2216 = test: MIC, broth microdilution; conditions: Staphylococcus aureus
S. aureus GC 6469 = test: MIC, broth microdilution; conditions: Staphylococcus aureus
E. faecalis GC 2265 = test: MIC, broth microdilution; conditions: Enterococcus faecalis
E. coli GC 3226 = test: MIC, broth microdilution; conditions: Escherichia coli
E. coli GC 2270 = test: MIC, broth microdilution; conditions: Escherichia coli
E. coli GC 2271 = test: MIC, broth microdilution; conditions: Escherichia coli
Staph. = test: Range of MIC for Staph. strains, including MRSA; conditions: Staphylococcus aureus, MRSA

MIC (E. coli GC 2231; GC2231, read-out: MINIMAL INHIBITORY CONCENTRATION MIC, pre-incubated in Mouse Serum): 1 µg/mL (≈ 1.19 µM) | MIC (E. coli GC 2231; GC2231, read-out: MINIMAL INHIBITORY CONCENTRATION MIC, pre-incubated in Water): > 64 µg/mL | MIC (S. aureus GC 6335; GC6335, read-out: MINIMAL INHIBITORY CONCENTRATION MIC, pre-incubated in Mouse Serum): 2 µg/mL (≈ 2.38 µM) | MIC (S. aureus GC 6335; GC6335, read-out: MINIMAL INHIBITORY CONCENTRATION MIC, pre-incubated in Water): 64 µg/mL (≈ 76.2 µM) | MIC (E. coli GC 2232; GC2232, read-out: MINIMAL INHIBITORY CONCENTRATION MIC, pre-incubated in Mouse Serum): 1 µg/mL (≈ 1.19 µM) | MIC (E. coli GC 2232; GC2232, read-out: MINIMAL INHIBITORY CONCENTRATION MIC, pre-incubated in Water): > 64 µg/mL | MIC (E. faecium GC 4556; GC4556, read-out: MINIMAL INHIBITORY CONCENTRATION MIC, pre-incubated in Mouse Serum): 2 µg/mL (≈ 2.38 µM) | MIC (E. faecium GC 4556; GC4556, read-out: MINIMAL INHIBITORY CONCENTRATION MIC, pre-incubated in Water): 64 µg/mL (≈ 76.2 µM) | MIC (E. coli GC 2236; GC2236, read-out: MINIMAL INHIBITORY CONCENTRATION MIC, pre-incubated in Mouse Serum): 1 µg/mL (≈ 1.19 µM) | MIC (E. coli GC 2236; GC2236, read-out: MINIMAL INHIBITORY CONCENTRATION MIC, pre-incubated in Water): > 64 µg/mL | MIC (P. aeruginosa GC 2214; GC2214, read-out: MINIMAL INHIBITORY CONCENTRATION MIC, pre-incubated in Mouse Serum): > 64 µg/mL | MIC (P. aeruginosa GC 2214; GC2214, read-out: MINIMAL INHIBITORY CONCENTRATION MIC, pre-incubated in Water): > 64 µg/mL | MIC (S. aureus GC 6466; GC6466, read-out: MINIMAL INHIBITORY CONCENTRATION MIC, pre-incubated in Mouse Serum): 1 µg/mL (≈ 1.19 µM) | MIC (S. aureus GC 6466; GC6466, read-out: MINIMAL INHIBITORY CONCENTRATION MIC, pre-incubated in Water): 64 µg/mL (≈ 76.2 µM) | MIC (E. coli GC 2203; GC2203, read-out: MINIMAL INHIBITORY CONCENTRATION MIC, pre-incubated in Mouse Serum): 0.5 µg/mL (≈ 0.595 µM) | MIC (E. coli GC 2203; GC2203, read-out: MINIMAL INHIBITORY CONCENTRATION MIC, pre-incubated in Water): > 64 µg/mL | MIC (S. pyogenes GC 4563; GC4563, read-out: MINIMAL INHIBITORY CONCENTRATION MIC, pre-incubated in Mouse Serum): 0.25 µg/mL (≈ 0.298 µM) | MIC (S. pyogenes GC 4563; GC4563, read-out: MINIMAL INHIBITORY CONCENTRATION MIC, pre-incubated in Water): 0.12 µg/mL (≈ 0.143 µM) | MIC (E. coli; 20 h, read-out: Range of MIC, E. coli (Mouse Serum)): 0.5 to 8 µg/mL (≈ 0.595 to 9.52 µM) | MIC (E. coli; read-out: Minimum inhibitory concentration (MIC), E. coli (mouse serum)): 0.5 to 8 µg/mL (≈ 0.595 to 9.52 µM) | MIC (E. coli; read-out: Minimum inhibitory concentration (MIC), E. coli (water)): > 64 µg/mL | MIC (E. coli; read-out: Range of MIC, E. coli (Water)): > 64 µg/mL | MIC (E. coli GC 2233; GC2233, read-out: MINIMAL INHIBITORY CONCENTRATION MIC, pre-incubated in Mouse Serum): 1 µg/mL (≈ 1.19 µM) | MIC (E. coli GC 2233; GC2233, read-out: MINIMAL INHIBITORY CONCENTRATION MIC, pre-incubated in Water): > 64 µg/mL | MIC (E. faecium GC 2243; GC2243, read-out: MINIMAL INHIBITORY CONCENTRATION MIC, pre-incubated in Mouse Serum): 0.5 µg/mL (≈ 0.595 µM) | MIC (E. faecium GC 2243; GC2243, read-out: MINIMAL INHIBITORY CONCENTRATION MIC, pre-incubated in Water): 8 µg/mL (≈ 9.52 µM) | MIC (E. coli GC 2234; GC2234, read-out: MINIMAL INHIBITORY CONCENTRATION MIC, pre-incubated in Mouse Serum): 0.5 µg/mL (≈ 0.595 µM) | MIC (E. coli GC 2234; GC2234, read-out: MINIMAL INHIBITORY CONCENTRATION MIC, pre-incubated in Water): > 64 µg/mL | MIC (S. aureus GC 2216; GC2216, read-out: MINIMAL INHIBITORY CONCENTRATION MIC, pre-incubated in Mouse Serum): 1 µg/mL (≈ 1.19 µM) | MIC (S. aureus GC 2216; GC2216, read-out: MINIMAL INHIBITORY CONCENTRATION MIC, pre-incubated in Water): 64 µg/mL (≈ 76.2 µM) | MIC (S. aureus GC 6469; GC6469, read-out: MINIMAL INHIBITORY CONCENTRATION MIC, pre-incubated in Mouse Serum): 4 µg/mL (≈ 4.76 µM) | MIC (S. aureus GC 6469; GC6469, read-out: MINIMAL INHIBITORY CONCENTRATION MIC, pre-incubated in Water): > 64 µg/mL | MIC (E. faecalis GC 2265; GC2265, read-out: MINIMAL INHIBITORY CONCENTRATION MIC, pre-incubated in Mouse Serum): 1 µg/mL (≈ 1.19 µM) | MIC (E. faecalis GC 2265; GC2265, read-out: MINIMAL INHIBITORY CONCENTRATION MIC, pre-incubated in Water): 64 µg/mL (≈ 76.2 µM) | MIC (E. coli GC 3226; GC3226, read-out: MINIMAL INHIBITORY CONCENTRATION MIC, pre-incubated in Mouse Serum): 8 µg/mL (≈ 9.52 µM) | MIC (E. coli GC 3226; GC3226, read-out: MINIMAL INHIBITORY CONCENTRATION MIC, pre-incubated in Water): > 64 µg/mL | MIC (E. coli GC 2270; GC2270, read-out: MINIMAL INHIBITORY CONCENTRATION MIC, pre-incubated in Mouse Serum): 1 µg/mL (≈ 1.19 µM) | MIC (E. coli GC 2270; GC2270, read-out: MINIMAL INHIBITORY CONCENTRATION MIC, pre-incubated in Water): > 64 µg/mL | MIC (E. coli GC 2271; GC2271, read-out: MINIMAL INHIBITORY CONCENTRATION MIC, pre-incubated in Mouse Serum): 0.5 µg/mL (≈ 0.595 µM) | MIC (E. coli GC 2271; GC2271, read-out: MINIMAL INHIBITORY CONCENTRATION MIC, pre-incubated in Water): > 64 µg/mL | MIC (Staph.; read-out: Minimum inhibitory concentration (MIC), Staph. (mouse serum)): 1 to 4 µg/mL (≈ 1.19 to 4.76 µM) | MIC (Staph.; read-out: Range of MIC, Staph (Mouse Serum)): 1 to 4 µg/mL (≈ 1.19 to 4.76 µM)
SMILES: CCCCN(CC(=O)Nc1cc(N(C)C)c2c(c1O)C(=O)C1=C(O)[C@]3(O)C(=O)C(C(N)=O)=C(O)[C@@H](N(C)C)[C@@H]3C[C@@H]1C2)C(=O)OCOC(=O)c1ccc(-c2ccccc2)cc1 [Example 21, ({[(2-{[(5aR,6aS,7S,10aS)-9-(aminocarbonyl)-4,7-bis(dimethylamino)-1,8,10a,11-tetrahydroxy-10,12-dioxo-5,5a,6,6a,7,10,10a,12-octahydrotetracen-2-yl]amino}-2-oxoethyl)(butyl)amino]carbonyl}oxy)methyl 1,1′-biphenyl-4-carboxylate]
